Structures can show the parent of a compound that is named as a salt.
Tests used:
[1] = system: cultured human mast cells (CHMC); assay: CHMC low cell density IgE activation: tryptase assay; assay type: cell-based; details: anti-IgE
Summary of the method: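 Cells pelleted, taken up in warm MT, plated at 1000-1500/well, held 1 hr 37° C. Anti-IgE added, 30 min 37° C. Plates spun; supernatant mixed with tryptase substrate, 30 min RT.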

[2] = system: cultured human mast cells (CHMC); assay: CHMC low cell density ionomycin activation: tryptase assay; assay type: cell-based

Row | Molecule | IC50 [1] | IC50 [2] | IC50 ([1]; Homo sapiens, Mast cell) | IC50 ([2]; Homo sapiens, Mast cell) | IC50 ([2]; Acetic Acid Salt)
1 | CN(CCO)C(=O)COc1cccc(Nc2ncc(F)c(Nc3ccc4c(c3)OCCO4)n2)c1 [R926766, N4-(3,4-Ethylenedioxyphenyl)-5-fluoro-N2-[3-[N-methyl-N-(2-hydroxyethyl)amino]carbonylmethyleneoxyphenyl]-2,4-pyrimidinediamine] | 0.756 µM | > 10 µM |  |  | 
2 | CON=C(N)COc1ccc(Nc2nc(Nc3ccc4c(c3)OCCO4)ncc2F)cc1 [R945175, N2-(3,4-Ethylenedioxyphenyl)-5-fluoro-N4-[4-methoxyimino(amino)ethyleneoxyphenyl]-2,4-pyrimidinediamine] | 1.65 µM | > 10 µM |  |  | 
3 | O=C(NCCNCc1ccccc1)c1cc2cc(Nc3ncc(F)c(Nc4ccc5oc(C(=O)NCCNCc6ccccc6)cc5c4)n3)ccc2o1 [R950169, N2,N4-Bis[2-(2-(N-benzylamino)ethyleneamoinocarbonyl)-benzofurane-5-yl]-5-fluoro-2,4-pyrimidinediamine] | 1.27 µM | 9.52 µM |  |  | 
4 | CNC(=O)Cn1ncc2ccc(Nc3ncc(F)c(Nc4ccc5c(c4)OCCO5)n3)cc21 [R935212, N4-(3,4-ethylenedioxyphenyl)-5-fluoro-N2-[1-(N-methylaminocarbonyl)methyl-indazoline-6-yl]-2,4-pyrimidinediamine] | 1.43 µM | > 10 µM |  |  | 
5 | CNC(=O)COc1cccc(Nc2ncc(F)c(Nc3ccc4c(c3)OCCCO4)n2)c1 [R935202, 5-Fluoro-N2-[3-(N-methylamino)carbonylmethyleneoxyphenyl]-N4-(3,4-propylenedioxyphenyl)-2,4-pyrimidinediamine] | 0.181 µM | 9.77 µM |  |  | 
6 | CC(C)(C)c1cccc(Nc2nc(Nc3cccc(OCC(=O)NC(CO)CO)c3)ncc2F)c1 [R940296, N4-(3-tert-Butylpheny)-N2-[3-(N-1,3-dihydroxypropyl-2-amino)carbonylmethyleneoxyphenyl]-5-fluoro-2,4-pyrimidinediamine] | 0.41 µM | > 10 µM |  |  | 
7 | OCCOc1cccc(Nc2ncc(CO)c(Nc3cccc(O)c3)n2)c1 [R926735, 5-(Hydroxymethyl)-N2-[3-(2-hydroxyethyleneoxy)phenyl]-N4-(3-hydroxyphenyl)-2,4-pyrimidinediamine] | 3.71 µM | > 10 µM |  |  | 
8 | CNC(=O)COc1ccc(Nc2ncc(F)c(Nc3ccc4c(c3)OCCO4)n2)cc1 [R909240, N4-(3,4-Ethylendioxyphenyl)-5-fluoro-[4-(N-methylamino)carbonylmethyleneoxyphenyl]-2,4-pyrimidinediamine] | 0.262 µM | > 10 µM |  |  | 
9 | COCCOc1ccc(Nc2ncc(F)c(Nc3ccc(OCCOC)cc3)n2)cc1 [R926342, N2,N4-Bis[4-(2-methoxyethyleneoxy)phenyl]-5-fluoro-2,4-pyrimidinediamine] | 10 µM | > 10 µM |  |  | 
10 | COc1ccc(Nc2nc(Nc3cccc(OCC(=O)NCC(O)CO)c3)ncc2F)cc1OC (centres unmarked) [R926734, N2-[3-(N-2,3-Dihydroxypropylamino)carbonylmethyleneoxyphenyl]-N4-(3,4-dimethoxyphenyl)-5-fluoro-2,4-pyrimidinediamine] | 4.49 µM | > 10 µM |  |  | 
11 | CC(C)(C)c1ccc(Nc2nc(Nc3cccc(OCC(=O)O)c3)ncc2F)cc1 [R926726, N4-(4-tert-Butylphenyl)-N2-(3-carboxymethyleneoxyphenyl)-5-fluor-2,4-pyrimidinediamine] | > 10 µM | > 10 µM |  |  | 
12 | CNC(=O)CCn1ncc2cc(Nc3ncc(F)c(Nc4cccc(OC(F)(F)F)c4)n3)ccc21 [R935361, 5-Fluoro-N2-[1-[2(N-methylaminocarbonyl)ethyl]indazoline-5-yl]-N4-(3-trifluoromethoxyphenyl)-2,4-pyrimidinediamine] | 1.44 µM | > 10 µM |  |  | 
13 | CNC(=O)COc1cccc(Nc2nc(Nc3cccc4c3CCO4)ncc2F)c1 [R909249, N2-(4-Dihydrobenzofuranyl)-5-fluoro-N4-[3-(N-methylamino)carbonylmethyleneoxyphenyl]-2,4-pyrimidinediamine] | > 10 µM | > 10 µM |  |  | 
14 | CCOC1CCOc2ccc(Nc3nc(Nc4cccc(OCC(=O)NC)c4)ncc3F)cc21 (centres unmarked) [R950296, N4-(4-Ethoxy-3,4-dihydro-2H-1-benzopyran-6-yl)-5-fluoro-N2-[3-(N-methylamino)carbonylmethyleneoxyphenyl]-2,4-pyrimidinediamine] | 0.495 µM | > 10 µM |  |  | 
15 | Cn1nnc(COc2ccc(Nc3ncc(F)c(Nc4ccc(OCc5nnn(C)n5)cc4)n3)cc2)n1 [R945046, N2,N4-Bis[4-(2-methyl-1,2,3,4-tetrazol-5-yl)methyleneoxyphenyl]-5-fluoro-2,4-pyrimidinediamine] | 0.82 µM | > 10 µM |  |  | 
16 | COC(=O)COc1cc(O)cc(Nc2ncc(F)c(Nc3cccc(O)c3)n2)c1 [R926927, 5-Fluoro-N2-[3-hydroxy-5-(methoxycarbonylmethyleneoxy)phenyl]-N4-(3-hydroxyphenyl)-2,4-pyrimidinediamine] | 0.348 µM | > 10 µM |  |  | 
17 | CNC(=O)COc1cccc(Nc2ncc(F)c(Nc3cccc(C(N)=O)c3)n2)c1 [R940299, 5-Fluoro-N2-[3-(methylaminocarbonylmethyleneoxy)phenyl]-N4-(3-aminocarbonylphenyl)-2,4-pyrimidinediamine] | 2.5 µM | > 10 µM |  |  | 
18 | CCOC(=O)COc1ccc(Nc2nc(Cl)cc(NCC(=O)OC)n2)cc1 [R926555, 6-Chloro-N2-(4-ethoxycarbonylmethyleneoxyphenyl)-N4-(methoxycarbonylmethyl)-2,4-pyrimidinediamine] | > 10 µM | > 10 µM |  |  | 
19 | COc1cccc(CNC(=O)COc2ccc(Nc3ncc(Br)c(Nc4ccc(OCC(=O)NCc5cccc(OC)c5)cc4)n3)cc2)c1 [R925841, N2,N4-Bis[4-[N-(3-methoxybenzylamino)carbonylmethyleneoxy]phenyl]-5-bromo-2,4-pyrimidinediamine] | > 10 µM | > 10 µM |  |  | 
20 | N2,N4-Bis(methoxycarbonylbenzyl)-5-cyano-2,4-pyrimidinediamine [R925819] | > 10 µM | > 10 µM |  |  | 
21 | CCOC(=O)CNc1cccc(Nc2ncc(F)c(Nc3cccc(O)c3)n2)c1 [R950216] |  |  | 0.327 µM | > 10 µM | 
22 | CNC(=O)COc1cccc(Nc2ncc(F)c(Nc3ccc4c(c3)OCCO4)n2)c1 [R926826, N4-(3,4-Ethylenedioxyphenyl)-5-fluoro-N2-[3-(N-methylamino)carbonylmethyleneoxyphenyl]-2,4-pyrimidinediamine Trifluoro Acetic Acid Salt] | 0.613 µM |  |  |  | > 10 µM
23 | CNC(=O)COc1cccc(Nc2ncc(F)c(Nc3ccc4c(c3)CNCC4)n2)c1 [R926914, 5-Fluoro-N4-(1,2,3,4-tetrahydroisoquin-7-yl)-N2-[3-[(N-methylamino)carbonylmethyleneoxy]phenyl]-2,4-pyrimidinediamine] | 1.86 µM | > 10 µM |  |  | 
24 | Cc1nc(COc2cccc(Nc3ncc(F)c(Nc4ccc(OC(C)C)cc4)n3)c2)no1 [R945129, 5-Fluoro-N4-(4-isopropoxyphenyl)-N2-[3-(5-methyl-1,2,4-oxadiazol-3-yl)methyleneoxyphenyl]-2,4-pyrimidinediamine] | 1 µM | > 10 µM |  |  | 
25 | O=C(CNc1cccc(Nc2ncc(F)c(Nc3cccc(NCCO)c3)n2)c1)NCCN1CCOCC1 [R950239, 5-Fluoro-N4-[3-(2-hydroxyethylamino)phenyl]-N2-[3-(N-morpholinoethyleneamino)carbonylmethyleneaminophenyl]-2,4-pyrimidinediamine] | 2.06 µM | > 10 µM |  |  | 
